Laboratory results taken from PubChem BioAssay (NCI).
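Protocol summary: plate cells (96-well), add compound at 5 concentrations, incubate 48 h, interpolate endpoints linearly. The concentration for full growth arrest is given as TGI.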

Tests used:
Experiment in all cases: NCI tumour cell line growth inhibition, 48 h
SF-268 CNS = tested on: SF-268 CNS
BT-549 breast = tested on: BT-549 breast
PC-3 prostate = tested on: PC-3 prostate
MDA-MB-231 breast = tested on: MDA-MB-231 breast
DU-145 prostate = tested on: DU-145 prostate
NCI-H460 lung = tested on: NCI-H460 lung
SNB-75 CNS = tested on: SNB-75 CNS
RPMI-8226 leukemia = tested on: RPMI-8226 leukemia
NCI/ADR-RES ovarian = tested on: NCI/ADR-RES ovarian
IGROV1 ovarian = tested on: IGROV1 ovarian
KM12 colon = tested on: KM12 colon
OVCAR-3 ovarian = tested on: OVCAR-3 ovarian
SK-OV-3 ovarian = tested on: SK-OV-3 ovarian
SN12C renal = tested on: SN12C renal
HT29 colon = tested on: HT29 colon
UO-31 renal = tested on: UO-31 renal
SK-MEL-5 melanoma = tested on: SK-MEL-5 melanoma
UACC-62 melanoma = tested on: UACC-62 melanoma
HS 578T breast = tested on: HS 578T breast
HOP-92 NSCLC = tested on: HOP-92 NSCLC
SNB-19 CNS = tested on: SNB-19 CNS
RXF 393 renal = tested on: RXF 393 renal
COLO 205 colon = tested on: COLO 205 colon
K-562 leukemia = tested on: K-562 leukemia
SW-620 colon = tested on: SW-620 colon
786-0 renal = tested on: 786-0 renal
NCI-H522 lung = tested on: NCI-H522 lung
SK-MEL-28 melanoma = tested on: SK-MEL-28 melanoma
CCRF-CEM leukemia = tested on: CCRF-CEM leukemia
SF-295 CNS = tested on: SF-295 CNS
HCT-116 colon = tested on: HCT-116 colon
EKVX NSCLC = tested on: EKVX NSCLC
CAKI-1 renal = tested on: CAKI-1 renal
MDA-MB-435 = tested on: MDA-MB-435
HCT-15 colon = tested on: HCT-15 colon
NCI-H23 lung = tested on: NCI-H23 lung
A549 NSCLC = tested on: A549 NSCLC
UACC-257 melanoma = tested on: UACC-257 melanoma
OVCAR-4 ovarian = tested on: OVCAR-4 ovarian
OVCAR-5 ovarian = tested on: OVCAR-5 ovarian
MDA-N = tested on: MDA-N
SR leukemia = tested on: SR leukemia
HCC-2998 colon = tested on: HCC-2998 colon
U251 CNS = tested on: U251 CNS
ACHN renal = tested on: ACHN renal
HOP-62 NSCLC = tested on: HOP-62 NSCLC
SF-539 CNS = tested on: SF-539 CNS
MOLT-4 leukemia = tested on: MOLT-4 leukemia
MCF7 breast = tested on: MCF7 breast
OVCAR-8 ovarian = tested on: OVCAR-8 ovarian
M14 melanoma = tested on: M14 melanoma
SK-MEL-2 melanoma = tested on: SK-MEL-2 melanoma

Measured: TGI

c1ccc(/C(=N/Nc2cnccn2)c2ncccn2)cc1
44.7 µM: NCI-H522 lung
> 100 µM: all other assays above
